The results in this text go back to US4362725A, “Cephalosporins” (Dr. Karl Thomae Gesellschaft mit beschrankter Haftung, priority 1980, dated 1982).

Converted amounts (≈) assume the structure as drawn.

Experiment [1] deals with Staphylococcus aureus SG 511. The experiment in a line: In vitro serial dilution test in the microtiter system (MIC), S. aureus. Format: cell-based. The conditions noted are these: SG511, 18 to 20 h at 37° C. On the procedure: (§1) The tests were performed using the serial dilution test in the microtiter system. The effect of the test compound on bacteristasis was examined in a liquid medium at the following concentrations: >64, 64 32, 16, 8, 4, 2, 1, 0.5, 0.25, 0.125, 0.06, 0.03 and 0.015 μgm/ml. The nutrient medium consisted of 10 gm of peptone, 8 gm of meat extract oxoid, 3 gm of sodium chloride, and 2 gm of sec. sodium phosphate diluted with distilled water to […] (pH 7.2-7.4). Only in the test against streptococci 1% of glucose was added. The age of the primary cultures was approximately 20 hours. The standardization of the bacteria suspension was effected using a photometer according to the method of Eppendorf (test tube .phi.-mm, filter 546 nm), using for comparison a barium sulfate suspension formed by the addition of 3.0 ml of 1% barium chloride solution to 97 ml of 1% sulfuric acid. After standardization, the test microorganisms were further diluted to a concentration of 1:1500, using a sodium chloride solution.
(§2) 16 mgm of the particular test compound were put into a 10 ml measuring flask, and the flask was subsequently filled to the mark with solvent. The further dilution series was standardized with distilled water or the appropriate solvent.
(§3) The cavities of the microtiter plates were filled with 0.2 ml of nutrient medium. 0.01 ml of the appropriate test compound solution was then added, followed by inoculation with 0.01 ml (1 drop) of the standardized bacteria suspension. The bacteria were incubated at 37° C. for 18 to 20 hours. Control tests using only the solvent were carried out simultaneously.
(§4) The readings were made macroscopically to determine the minimum inhibitory concentration (the lowest still bacteriostatically effective concentration).
(§5) The following test organisms were used:
(§6) Staphylococcus aureus SG 511, Escherichia coli ATCC11 775, Pseudomonas aeruginosa hamburgensis and Pseudomonas aeruginosa BC 19, Serratia marcescens ATCC 13 880, Klebsiella pneumoniae ATCC 10 031 and BC 6, Proteus mirabilis BC 17, Proteus rettgeri BC 7, Enterobacter Cloaceae ATCC 13047 and E. coli R+TEM (β-lactamase carrier).

Experiment [2] relates to Escherichia coli ATCC11 775. The experiment in a line: In vitro serial dilution test in the microtiter system (MIC), E. coli. In kind it is cell-based. The conditions noted are these: 18 to 20 h at 37° C., read-out: MIC E. coli ATCC 11775. On the procedure: as §1, §2, §3, §4, §5, §6
The subject of experiment [3] is Pseudomonas aeruginosa hamburgensis. In words: In vitro serial dilution test in the microtiter system (MIC), Pseudomonas Hbg. Format: cell-based. The conditions noted are these: 18 to 20 h at 37° C., read-out: MIC Pseud. aerug. Hbg. As for the experimental part: as §1, §2, §3, §4, §5, §6
The test system of experiment [4] is Pseudomonas aeruginosa BC 19. In words: In vitro serial dilution test in the microtiter system (MIC), Pseudomonas BC 19. Format: cell-based. The conditions noted are these: BC19, 18 to 20 h at 37° C., read-out: MIC Pseud. aerug. BC 19. As for the experimental part:
as §1, §2, §3, §4, §5, §6

In experiment [5] the test system is Klebsiella pneumoniae ATCC 10 031. The experiment in a line: In vitro serial dilution test in the microtiter system (MIC), Klebsiella ATCC 10031. In kind it is cell-based. The conditions noted are these: 18 to 20 h at 37° C., read-out: MIC Klebs. pneum. ATCC 10031. On the procedure:
as §1, §2, §3, §4, §5, §6

For experiment [6], the system named is Klebsiella pneumoniae BC 6. The experiment in a line: In vitro serial dilution test in the microtiter system (MIC), Klebsiella BC 6. Format: cell-based. The conditions noted are these: BC6, 18 to 20 h at 37° C., read-out: MIC Klebs. pneum. BC 6. As for the experimental part: as §1, §2, §3, §4, §5, §6
For a further experiment, the system named is Proteus mirabilis BC 17. In words: In vitro serial dilution test in the microtiter system (MIC), Proteus mirabilis. In kind it is cell-based. The conditions noted are these: BC17, 18 to 20 h at 37° C., read-out: MIC Prot. mir. BC 17. As for the experimental part: as §1, §2, §3, §4, §5, §6
Another experiment deals with Proteus rettgeri BC 7. In words: In vitro serial dilution test in the microtiter system (MIC), Proteus rettgeri. In kind it is cell-based. The conditions noted are these: Providencia rettgeri, BC7; 18 to 20 h at 37° C.; read-out: MIC Prot. rettg. BC 7. As for the experimental part:
as §1, §2, §3, §4, §5, §6

For experiment [7], the system named is Enterobacter Cloaceae ATCC 13047. In words: In vitro serial dilution test in the microtiter system (MIC), Enterobacter. In kind it is cell-based. The conditions noted are these: ATCC13047, 18 to 20 h at 37° C., read-out: MIC Eb. cloaceae. As for the experimental part: as §1, §2, §3, §4, §5, §6
The subject of experiment [8] is E. coli R+TEM (β-lactamase carrier). The experiment in a line: In vitro serial dilution test in the microtiter system (MIC), E. coli R+TEM. The conditions noted are these: Escherichia coli, read-out: MIC E. coli R + TEM. In kind it is cell-based. On the procedure: as §1, §2, §3, §4, §5, §6
The subject of experiment [9] is Serratia marcescens ATCC 13 880. In words: In vitro serial dilution test in the microtiter system (MIC), Serratia. The conditions noted are these: 18 to 20 h at 37° C., read-out: MIC Ser. marcesc. ATCC 13880. Format: cell-based. As for the experimental part:
as §1, §2, §3, §4, §5, §6

The next experiment relates to E. coli ATCC 11 775. In words: In vivo activity in mice, experimental E. coli infection. Further details: species or system mice (female, NMRI strain). The conditions noted are these: Escherichia coli, ATCC11, sc, 168 h; s.c., once 1 hour after i.p. E. coli infection; 7 days observation; read-out: ED50 (dose at which 50% of the animals survive). As for the experimental part: (§7) Several of the compounds of this invention were tested in vivo against experimental infections in mice. E. coli ATCC 11 775 and Pseudomonas aeruginosa BC 19 were used as the pathogenic bacteria. An interaperitoneal infection was induced with 0.2 ml of a bacterial suspension (containing 5% of mucin). This corresponds to approximately 1.4×10^6 E. coli germs or to 1.3×10^6 pseudomonas germs per mouse. Female mice of the NMRI strain were divided up into groups of 10 animals of which 2 groups remained untreated while the remaining groups were subcutaneously administered various doses of the particular cephalosporins according to the invention for the purpose of determining the ED50 (dose at which 50% of the animals survive). In the case of the E. coli infection, the treatment was applied once (1 hour after infection) while the pseudomonas infection was treated 3 times (1, 3 and 5 hours after infection).
(§8) In both cases, the observation period was 7 days. The results of these tests, carried out with typical representatives of the cephalosporins according to the invention, are shown in Table 3 below.

Experiment [10] concerns Pseudomonas aeruginosa BC 19. In words: In vivo activity in mice, experimental Pseudomonas infection. Also on record: species or system mice (female, NMRI strain). The conditions noted are these: BC19, sc, 168 h, per dose, s.c., 3 times (1, 3 and 5 hours after i.p. Pseudomonas infection), 7 days observation, read-out: ED50 (dose at which 50% of the animals survive). As for the experimental part: as §7, §8

As a reminder, the MIC is the least concentration at which growth counts as inhibited. Usually ED50 stands for the dose at which the effect has come halfway, by size or by number of responders. For the compound `Cn1c(SCC2=C(C(=O)O)N3C(=O)[C@@H](NC(=O)C(NC(=O)Nc4cnc(Nc5ccc(S(N)(=O)=O)cc5)nc4O)c4ccc(O)cc4)[C@H]3SC2)nnc(O)c1=O` (stereo partly shown) [Compound 16], the MIC in [1] was determined as 0.12 µg/mL (≈ 0.145 µM); in experiment [2], 0.12 µg/mL (≈ 0.145 µM); in [3], 8 µg/mL (≈ 9.66 µM); in experiment [4] it was 4 µg/mL (≈ 4.83 µM); in experiment [5], 0.12 µg/mL (≈ 0.145 µM); in experiment [6], 0.25 µg/mL (≈ 0.302 µM). The MIC with Proteus mirabilis BC 17 is 0.12 µg/mL (≈ 0.145 µM); with Proteus rettgeri BC 7, 0.25 µg/mL (≈ 0.302 µM); in experiment [7] it was 0.25 µg/mL (≈ 0.302 µM); in experiment [8], 4 µg/mL; in experiment [9] it was 0.25 µg/mL (≈ 0.302 µM). Also, the ED50 in the experiment on E. coli ATCC 11 775 is roughly 0.8 mg/kg; in [10], 10 to 20 mg/kg.
With `C[S+]([O-])CCn1nnnc1SCC1=C(C(=O)O)N2C(=O)[C@@H](NC(=O)C(NC(=O)Nc3cnc(Nc4ccc(S(N)(=O)=O)cc4)nc3O)c3ccc(O)cc3)[C@H]2SC1` (stereo partly shown) [Compound 21], the MIC in experiment [1] is 1 µg/mL (≈ 1.16 µM); in [2], 0.12 µg/mL (≈ 0.139 µM); in experiment [3], 8 µg/mL (≈ 9.29 µM); in experiment [4] it was 8 µg/mL (≈ 9.29 µM); in experiment [5], 0.25 µg/mL (≈ 0.29 µM); in experiment [6], 0.25 µg/mL (≈ 0.29 µM). Further, the MIC is 0.12 µg/mL (≈ 0.139 µM) in the experiment on Proteus mirabilis BC 17, 0.5 µg/mL (≈ 0.581 µM) in the experiment with Proteus rettgeri BC 7, 8 µg/mL in experiment [8] and 0.25 µg/mL (≈ 0.29 µM) in [9].
As for `CS(=O)(=O)CCn1nnnc1SCC1=C(C(=O)O)N2C(=O)[C@@H](NC(=O)C(NC(=O)Nc3cnc(Nc4ccc(S(N)(=O)=O)cc4)nc3O)c3ccc(O)cc3)[C@H]2SC1` (stereo partly shown) [Compound 30], the MIC was 2 µg/mL (≈ 2.28 µM) in experiment [1]; 0.12 µg/mL (≈ 0.137 µM) in experiment [2]; 8 µg/mL (≈ 9.12 µM) in experiment [3]; 4 µg/mL (≈ 4.56 µM) in [4]; 0.5 µg/mL (≈ 0.57 µM) in experiment [5]; 0.5 µg/mL (≈ 0.57 µM) in experiment [6]. Also, the MIC in the experiment on Proteus mirabilis BC 17 was determined as 0.06 µg/mL (≈ 0.0684 µM); with Proteus rettgeri BC 7 it was 1 µg/mL (≈ 1.14 µM); in [7], 0.5 µg/mL (≈ 0.57 µM); in experiment [8], 8 µg/mL; in experiment [9], 0.5 µg/mL (≈ 0.57 µM). Besides, the median effective dose (ED50) in the experiment with E. coli ATCC 11 775 is roughly 0.6 mg/kg; in experiment [10], 10 to 20 mg/kg.
Take `CS(=O)(=O)NCCn1nnnc1SCC1=C(C(=O)O)N2C(=O)[C@@H](NC(=O)C(NC(=O)Nc3cnc(Nc4ccc(S(N)(=O)=O)cc4)nc3O)c3ccc(O)cc3)[C@H]2SC1` (stereo partly shown) [Compound 36]: the MIC was 2 µg/mL (≈ 2.24 µM) in [1]; 0.03 µg/mL (≈ 0.0336 µM) in experiment [2]; 4 µg/mL (≈ 4.48 µM) in [3]; 2 µg/mL (≈ 2.24 µM) in experiment [4]; 0.12 µg/mL (≈ 0.135 µM) in experiment [5]; 0.12 µg/mL (≈ 0.135 µM) in [6]. Moreover, the MIC in the experiment with Proteus mirabilis BC 17 worked out at 0.06 µg/mL (≈ 0.0673 µM); in the experiment with Proteus rettgeri BC 7, 0.25 µg/mL (≈ 0.28 µM); in experiment [7], 0.12 µg/mL (≈ 0.135 µM); in experiment [8] it was 8 µg/mL; in experiment [9], 0.25 µg/mL (≈ 0.28 µM).
In the case of `CC(=O)NCCn1nnnc1SCC1=C(C(=O)O)N2C(=O)[C@@H](NC(=O)C(NC(=O)Nc3cnc(Nc4ccc(S(N)(=O)=O)cc4)nc3O)c3ccc(O)cc3)[C@H]2SC1` (stereo partly shown) [Compound 37], the MIC was determined as 2 µg/mL (≈ 2.34 µM) in experiment [1]; 0.12 µg/mL (≈ 0.14 µM) in experiment [2]; 8 µg/mL (≈ 9.35 µM) in [3]; 4 µg/mL (≈ 4.67 µM) in experiment [4]; 0.12 µg/mL (≈ 0.14 µM) in experiment [5]; 0.12 µg/mL (≈ 0.14 µM) in experiment [6]. The MIC is 0.06 µg/mL (≈ 0.0701 µM) in the experiment with Proteus mirabilis BC 17; 0.25 µg/mL (≈ 0.292 µM) with Proteus rettgeri BC 7; 0.12 µg/mL (≈ 0.14 µM) in experiment [7]; 8 µg/mL in experiment [8]; 0.12 µg/mL (≈ 0.14 µM) in experiment [9].
